Legend:
Assay type in all cases: cell-based
[1] = tested on: Staphylococcus aureus (ATCC #6538); experiment: Preservative effectiveness test, single challenge
Excerpt: (§1) To test for preservative effectiveness, aliquots of vaccine were inoculated with the following organisms:
(§2) Thirty milliliters (ml) of each vaccine formulation with and without Thimerosal or 2-PE at indicated concentrations or saline containing Thimerosal at 0.02% were inoculated in triplicates with a suspension of each test organism to achieve an inoculum density of approximately 10^5 to 10^6 CFU/ml at time 0 (CFU=colony forming units). […] Samples were mixed to ensure even distribution of challenged organisms. Another 30 ml of vaccine in triplicate (with and without preservative) were used as a negative control and spiked with the culture media alone to evaluate the inherent contamination that might be present in the sample or media. Each of the three series of vaccines, and positive and negative controls, was then separately incubated at 20 to 25° C. Aliquots (1 ml) of the challenged samples and controls (or their appropriate serial ten fold dilutions) were enumerated by plate count in duplicates at time 0 and at intervals of 6 hours, 24 hours, 7 days, 14 days and 28 days post-inoculation.
(§3) USP 29 NF 24 Supplement 2 (USP) requires that, after an inoculation of bacterial micro-organism(s), there is at least 1.0 log reduction from the initial calculated count (i.e., at time of inoculation) at 7 days, at least 3.0 log reduction at 14 days from the previous value measured and no increase at 28 days from the previous measured value. For yeast and fungi, the USP requirement is for there to be no increase from the time of inoculation to 7, 14 and 28 days.
(§4) EP requirements are more stringent. EP 5th Edition 5.6 (5.1.3) requirements for parenteral and ophthalmic preparations has two components: Category A and Category B. Category A (EP-A) requires, for bacteria, at least 2.0 log reduction from the initial calculated count at 6 hours after inoculation, at least 3.0 log reduction at 24 hours from the previous measured value, and no recovery at 28 days. Category B (EP-B) requires, for bacteria, at least 1.0 log reduction at 24 hours from the initial calculated count, at least 3.0 log reduction at 7 days from the previous value measured and not more than 0.5 log increase at 28 days from the previous value measured (i.e., no increase). For yeast and fungi, Category A requires at least 2.0 log reduction at 7 days and no increase from the previous value measured at 28 days, and Category B requires at least 1.0 log reduction at 14 days and no increase from the previous value measured at 28 days.
(§5) Plates containing <300 CFU for bacteria or <100 CFU for yeast or mold were used during enumeration. For single challenge studies, arithmetic average count of all surviving micro-organisms in triplicate and on duplicate plates (6 values per time point) plus their diluted samples were measured and normalized as CFU/ml. The results are expressed as mean log10 CFU/ml reduction (compared to time 0). In this case, the count of surviving micro-organisms is evaluated at time 0 as the baseline and compared to incubation time of 6 hours, 24 hours, 7 days, 14 days and 28 days.

[2] = tested on: Candida albicans (ATCC#10231); experiment: Preservative effectiveness test, single challenge
Excerpt: as §1, §2, §3, §4, §5

[3] = tested on: Staphylococcus aureus, Pseudomonas aeruginosa, Candida albicans, Aspergillus niger; experiment: Preservative effectiveness test, single challenge, all challenge organisms (pharmacopeial acceptance criteria); conditions: for preservative effectiveness after storage: 2-PE at 3.5 to 5.0 mg/dose
Excerpt: For ascertaining preservative levels according to U.S. and European Pharmacopeias (USP and EP, respectively), the vaccine formation is inoculated once with approximately 10^5 to 10^6 CFU/ml at time 0 (CFU=colony forming units) of:
USP 29 NF 24 Supplement 2 (USP) requires that, after an inoculation of bacterial micro-organism(s), there is at least 1.0 log reduction from the initial calculated count (i.e., at time of inoculation) at 7 days, at least 3.0 log reduction at 14 days from the previous value measured, and no increase at 28 days compared to the previous value measured. For yeast and fungi, the USP requirement is for there to be no increase from time of inoculation at 7, 14 and 28 days.
EP requirements are more stringent. EP 5th Edition 5.6 (5.1.3) requirements for parenteral and ophthalmic preparations has two components: Category A and Category B. Category A (EP-A) requires, for bacteria, at least 2.0 log reduction from the initial calculated count at 6 hours after inoculation, at least 3.0 log reduction from the previous value measured at 24 hours and no recovery at 28 days. Category B (EP-B) requires, for bacteria, at least 1.0 log reduction from the initial calculated count at 24 hours, at least 3.0 log reduction at 7 days from the previous value measured and not more than 0.5 log increase from the previous value measured (i.e., no increase) at 28 days. For yeast and fungi, Category A requires at least 2.0 log reduction at 7 days from the initial calculated count, and no increase at 28 days from the previous measured value; and Category B requires at least 1.0 log reduction from the initial calculated count at 14 days and no increase at 28 days from the previous measured value.
as §2, §3
as §4, with “increase).” for “increase). For yeast and fungi, Category A requires at least 2.0 log reduction at 7 days and no increase from the previous value measured at 28 days, and Category B requires at least 1.0 log reduction at 14 days and no increase from the previous value measured at 28 days.”

[4] = Prev(e)nar 13 formulation, single challenge, 20 to 25° C.
[5] = 2-PE at 2.5 mg/dose, single challenge
[6] = 0.01% Thimerosal in Prev(e)nar 13, single challenge
[7] = 0.02% Thimerosal in saline (no Prev(e)nar 13) versus vaccine formulation, single challenge
[8] = Thimerosal at 0.01% in Prev(e)nar 13 vaccine formulation, single challenge
[9] = Thimerosal at 0.02% (50 μg mercury per dose), single challenge
[10] = Thimerosal at 0.04% (100 μg mercury per dose), single challenge

OCCOc1ccccc1 [2-PE, 2-phenoxyethanol]
time to reduction of S. aureus to baseline after inoculation ([1]; 5.0 mg/dose 2-PE in Prev(e)nar 13, single challenge): 24 h | EP (EP-B) vaccine safety requirements, S aureus [1, 4]: Fails | USP vaccine safety requirements, S aureus [1, 4]: Meets | EP (EP-B) vaccine safety requirements, C. albicans [2, 4]: Fails | USP vaccine safety requirements, C. albicans [2, 4]: Meets | EP-A anti-microbial effectiveness acceptance criteria [3]: met | EP-B anti-microbial effectiveness acceptance criteria [3]: met | EP acceptance criteria A [3, 5]: failed | EP acceptance criteria B [3, 5]: failed | preservative acceptance criteria EP-B ([3]; 2-PE at 3.5 mg/dose, single challenge): meet | preservative acceptance criteria EP-B ([3]; 2-PE at 5 mg/dose, single challenge): meet | preservative effectiveness after storage ([3]; formulations stored at 2-8° C. for two and a half years): remained persistent | preservative effectiveness after storage ([3]; formulations stored at 37° C. for a month): remained persistent | EP acceptance criteria B ([3]; 2-PE at concentrations of 3.5 to 5.5 mg/dose, single challenge): met | effectiveness as a preservative compared with Thimerosal ([3]; Prev(e)nar 13 formulation, single challenge): more effective

C[CH2][Hg][S]c1ccccc1C(=O)[O-].[Na+] [Thimerosal]
inhibition of S. aureus relative to P. aeruginosa and A. niger [1, 6]: weaker | growth inhibitory effectiveness against S. aureus [1, 7]: slightly improved | decline of S. aureus ([1]; Thimerosal in Prev(e)nar 13, single challenge): slow decline | inhibition of C. albicans relative to P. aeruginosa and A. niger [2, 6]: weaker | growth inhibitory effectiveness against C. albicans [2, 7]: slightly improved | reduction of contamination levels, C. albicans ([2]; 0.02% Thimerosal versus 0.01% in Prev(e)nar 13, single challenge): more pronounced | contamination levels of all four inoculated micro-organisms ([3]; 0.01% Thimerosal in Prev(e)nar 13, single challenge, 20-25° C., 28 days): reduced | European acceptance criteria EP-A [3, 8]: did not meet | European acceptance criteria EP-B [3, 8]: did not meet | acceptance limits established by the Japanese Pharmacopoeia [3, 8]: did pass | acceptance limits established by the U.S. Pharmacopoeia [3, 8]: did pass | EP acceptance criteria A [3, 9]: not | EP acceptance criteria B [3, 9]: met | EP acceptance criteria A [3, 10]: not | EP acceptance criteria B [3, 10]: met
